Patent publication US20250057959A1, “PHOSPHANE GOLD(I)-N-HETEROCYCLIC CARBENE COMPLEXES FOR TREATING CANCER” (KING FAHD UNIVERSITY OF PETROLEUM AND MINERALS, priority 2023, published 2025)
Entries after “also recorded” stand apart in the source; their conditions may differ.

Tests used:
[1] = test system: SKOV3 cells; assay: MTT cell viability assay, SKOV3; format: cell-based, human; conditions: 72 hours treatment
From the text: Human epithelial ovarian cancer A2780 cell line and its cisplatin-resistant clone A2780cis were obtained from Sigma-Aldrich (Milano, Italy). SKOV3 (HTB-77) cells were from the American Type Culture Collection (ATCC). The two cell lines were selected to reflect the two different stages of OvCa and different sensitivity to cisplatin. A2780 cell lines were derived from the ovarian tumor tissue of an untreated patient, while SKOV3 was from the ascitic fluids (after metastasis). Cells were authenticated in the laboratory using PowerPlex 16 HS system (Promega) and GeneMapper ID version 3.2.1 to identify DNA short tandem repeats. Cell lines were cultured in RPMI-1640 medium containing 10% fetal bovine serum (FBS) (Gibco, Thermo Fisher Scientific, U.S.A), 1% (v/v) of penicillin (10,000 units/mL)-streptomycin (10 mg/mL), and 1% (v/v) L-glutamine (200 mM) (all from Sigma- Aldrich) at 37° C. in a 5% CO2 fully humidified atmosphere. A2780cis cells were continuously exposed to 1 μM cisplatin to maintain cisplatin resistance. Adipose-derived stem cells (ADSCs) were purchased from Lonza and maintained in mesenchymal-stem-cell growth medium Bulletkit MSCGM (Lonza, Verviers, Belgium).
4.0×10^3/mL A2780, A2780cis, and SKOV3 cells were seeded in 96-well microplates in 100 μL of culture medium. Cells were allowed to adhere for 24 hours and then were treated in triplicate with increasing concentrations of gold compounds (0-1 μM). Cisplatin was included as a reference drug. Cell viability was evaluated using 3-(4,5-dimethylthiazol-2-yl)-2,5-diphenyltetrazolium bromide (MTT) assay (Sigma-Aldrich) after 72 hours of treatment. Half maximal inhibitory concentrations (IC50) were calculated using the CalcuSyn software version 2 (Biosoft, Ferguson, MO, USA). Fold resistance was calculated as the ratio of the IC50 of the A2780cis to that of the parental cell line A2780.

[2] = test system: adipose-derived stem cells (ADSCs); assay: Cell viability in normal adipose-derived stem cells; format: cell-based; conditions: 72 hours treatment, normal human cells
From the text: Human epithelial ovarian cancer A2780 cell line and its cisplatin-resistant clone A2780cis were obtained from Sigma-Aldrich (Milano, Italy). SKOV3 (HTB-77) cells were from the American Type Culture Collection (ATCC). The two cell lines were selected to reflect the two different stages of OvCa and different sensitivity to cisplatin. A2780 cell lines were derived from the ovarian tumor tissue of an untreated patient, while SKOV3 was from the ascitic fluids (after metastasis). Cells were authenticated in the laboratory using PowerPlex 16 HS system (Promega) and GeneMapper ID version 3.2.1 to identify DNA short tandem repeats. […]
4.0×10^3/mL A2780, A2780cis, and SKOV3 cells were seeded in 96-well microplates in 100 μL of culture medium. […] Cell viability was evaluated using 3-(4,5-dimethylthiazol-2-yl)-2,5-diphenyltetrazolium bromide (MTT) assay (Sigma-Aldrich) after 72 hours of treatment. Half maximal inhibitory concentrations (IC50) were calculated using the CalcuSyn software version 2 (Biosoft, Ferguson, MO, USA). Fold resistance was calculated as the ratio of the IC50 of the A2780cis to that of the parental cell line A2780.

[3] = test system: A2780, A2780cis, and SKOV3 cells; assay: Cell cycle analysis (PI, flow cytometry), three OvCa lines; format: cell-based, human; conditions: 24 hours, 0.15 μM and 0.5 μM
Description: (§1) 2.0×10^5/mL A2780 and A2780cis cells were seeded in 6-well plates in complete medium and treated with complex 6 (0.15 μM and 0.5 μM). Results were detected by flow cytometry on a BD FACSCanto II flow cytometer. Data were analyzed using BD FACSDiva version 8.0.1 software (BD Biosciences) unless otherwise indicated. To evaluate apoptosis, tumor cells were treated for 48 hours and then stained for 15 minutes with FITC annexin-V (Thermo Fisher Scientific) and 7AAD (BD Pharmingen). […] For B-cell lymphoma/leukemia-2 (Bcl-2) and Bcl-2 associated x protein (Bax) evaluation, cells were fixed and permeabilized using FIX & PERM cell fixation and cell permeabilization kit (Life Technologies). For ROS generation, cells were stained with 5 μM MitoSOX red mitochondrial superoxide indicator (ThermoFisher Scientific) in a working solution for 30 minutes at 37° C. Cell cycle analysis was performed after 24 hours treatment with complex 6. Cells were harvested, fixed in cold 70% ethanol for 15 minutes, and stained with propidium iodide (PI) solution ([…] PI, 0.1% NP-40, 100 µg/mL PureLink RNase A, 0.1% sodium citrate) for 1 hour. The distribution of cells in different cell cycle phases was quantified using ModFit LT 4.0 software (Verity Software House, Topsham, ME, USA).

[4] = test system: SKOV3-MCTSs; assay: SKOV3-MCTS spheroid volume; format: cell-based, human; conditions: for SKOV3-MCTS volume decrease with respect to control: 0.5 μM
Description: To generate single spheroids with defined size, 1.0×10^3/mL SKOV3 cells were seeded 4 days under nonadherent conditions in U-bottom 96-well plates coated twice with 20 mg/mL of poly(2-hydroxyethyl methacrylate) (poly-HEMA; Sigma) in 95% ethanol. Spheroid size was measured at days 0, 3, and 7 after drug treatment initiation using an inverted microscope (Eclipse TS/100, Nikon, Tokyo, Japan) with photomicrographic systems DS camera control unit DS-L2. Spheroid volumes were calculated using the formula (width^2×length×3.14)/6.

[5] = test system: SKOV3-MCTSs; assay: Apoptosis, mitROS and DNA-DSBs in SKOV3-MCTSs; format: cell-based, human
Description: To obtain multiple spheroids, 5.0×10^4/mL SKOV3 cells were seeded in nonadherent conditions on poly-HEMA coated wells for 4 days. After drug treatment, viable cells were evaluated using PrestoBlue cell viability reagent (Thermo Fisher Scientific, Frederick, MD, USA) or alternatively trypsinized to a single cell suspension for further analysis.
as §1
Whole-cell lysates were prepared using cold RIPA buffer [150 mM NaCl, 50 mM Tris-HCl (pH 8), 0.1% SDS, 1% Igepal, and 0.5% desoxycholate sodium] containing a protease inhibitor cocktail (Roche Diagnostics S.p.a., Milan, Italy), phosphatase inhibitors 1 mM Na3VO4 and 1 mM NaF (Sigma-Aldrich). Protein concentrations were determined using the BioRad protein assay (Bio-Rad Laboratories, Inc., CA, USA). Equal amounts of proteins were mixed with Laemmli buffer, separated in 4-20% SDS-PAGE (Criterion Precast Gel, BioRad), and blotted onto a nitrocellulose membrane (Amersham, GE Healthcare). Membrane strips were blocked with EveryBilot blocking buffer (Bio-Rad) and incubated at 4° C. overnight with primary antibodies probed with the appropriate antibodies (Table 2) and developed using Immobilon Western chemioluminescent HRP substrate. Images were acquired using a ChemiDoc XRS system (Bio-Rad).

[6] = test system: tumor xenografts derived from SKOV3 cells; assay: SKOV3 xenograft tumor growth in athymic nude mice; format: in vivo; conditions: two injections/week
Description: Animal experimentation was reviewed and approved by Centro di Riferimento Oncologico di Aviano (CRO) Institutional Organism for Animal Wellbeing (OPBA) and approved by the Italian Ministry of Health (No. 671/2015/PR). All animal experiments were conducted in adherence to the international and institutional committees' ethical guidelines. Ten 4-week-old female athymic nude NU(NCr)-Foxn1^nu mice were purchased from Charles Rivers (Lecco, Italy). SKOV3 (10×10^6 cells/animal) were suspended in BD Matrigel basement membrane matrix (BD Biosciences) (diluted 1:3 in PBS) and inoculated into the animals' right flank. When tumors were palpable, animals were divided into two groups of five mice each, and treated with intratumoral injection of complex 6 (2 mg/kg) or vehicle (10% DMSO, 20% Cremophor Sigma-Aldrich, 70% PBS) two times a week. Body weight and tumors were examined regularly. Tumor size was measured using a digital caliper, and volumes were calculated according to the formula (width^2×length×3.14)/6.

CC(C)c1cccc(C(C)C)c1-n1ccn(-c2c(C(C)C)cccc2C(C)C)[c]1=[Au+][PH](C1CCCCC1)(C1CCCCC1)C1CCCCC1.F[P-](F)(F)(F)(F)F [Complex 6, [Au(IPr)(C18H33P)] PF6]
IC50 [1]: 580 nM | IC50 [2]: 2500 nM | Effect on cell cycle phases [3]: induced an accumulation in the G0/G1 phase of the cell cycle and a decrease in the S phases | SKOV3-MCTS volume decrease with respect to control ([4]; 3 days): about 60% | SKOV3-MCTS volume decrease with respect to control ([4]; 7 days): about 75% | Effect on SKOV3-MCTSs at 1 μM ([4]; 1 μM): almost entirely diminished the SKOV3-MCTSs; also recorded: completely destroyed spheroids; also recorded: completely destroyed SKOV3-MCTSs | mitROS generation in SKOV3-MCTSs ([5]; 24 hours): increased mitROS generation | Caspase-3,7 activation in SKOV3-MCTSs ([5]; FLICA): caused the activation of caspase-3,7 | Annexin-V+ cells in SKOV3-MCTSs ([5]; annexin-V-FITC/7AAD, flow cytometry): caused an increase of annexin-V+ cells | DNA-DSBs (γH2AX) in SKOV3-MCTSs ([5]; western blot): induced DNA-DSBs | Reduction of tumor volume with respect to vehicle-treated mice ([6]; 2 mg/kg intratumoral): more than 80% | Tumor mass weight ([6]; 2 mg/kg intratumoral): reduced | Mean tumor volume ([6]; day 35, 2 mg/kg intratumoral, control 869.5±61.9): 155.8±84.5 mm^3
